*1 amine or outer side, *2 acyl side, *3 side chain or, on linkers, in order; H or OH if unused. Where a SMILES comes first, the peptide text is derived from it. Bridges are numbered along the chain shown (N, C = ends). [ ]: non-standard residue; d: D form. Phe(3,4,5-F3) = N[C@@H](Cc1cc(F)c(F)c(F)c1)C(=O)O; Phe(3,4-F2) = N[C@@H](Cc1ccc(F)c(F)c1)C(=O)O; d(cisHyp) = O=C(O)[C@H]1C[C@@H](O)CN1; NMeF = CN[C@@H](Cc1ccccc1)C(=O)O; X1 = O=C([C@H]1COCCN1[*:1])[*:2]; dNMeF = CN[C@H](Cc1ccccc1)C(=O)O; dHyp = O=C(O)[C@H]1C[C@H](O)CN1; NMeNle = CCCC[C@H](NC)C(=O)O; Orn = NCCC[C@H](N)C(=O)O
Target: T1, Human PD-L1/PD-1 (Homo sapiens, UniProt Q9NZQ7)
T1 construct: TVMV protease cleavage site (C); made in house; host or cells: HEK293T cells
Assay: HTRF Human PD-L1/PD-1 binding assay (PD-1-Ig/PD-L1-His)
Conditions: PD-L1-His 10 nM, PD-1-Ig 20 nM; class symbol; read-out: HTRF Human PD-L1/PD-1 Binding Assay IC50 Range
Summary of the method: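 Truncated Fc-fused human PD-1 (aa 25-167) at 20 nM and His-tagged PD-L1 (aa 18-239) at 10 nM final are used, with peptides preincubated 15 min with PD-L1. Detection uses europium-cryptate anti-Ig and APC anti-His antibodies; 665/620 nm ratio.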

T1 sequence (Q9NZQ7 with tags, fused parts or gaps): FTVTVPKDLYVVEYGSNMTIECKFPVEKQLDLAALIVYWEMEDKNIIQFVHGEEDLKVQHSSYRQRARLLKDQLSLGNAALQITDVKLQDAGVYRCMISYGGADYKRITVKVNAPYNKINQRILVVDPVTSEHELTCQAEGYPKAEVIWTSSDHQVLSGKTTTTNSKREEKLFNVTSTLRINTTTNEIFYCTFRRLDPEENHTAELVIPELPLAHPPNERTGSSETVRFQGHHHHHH

SMILES | IC50
CCCC[C@H]1C(=O)N2CCOC[C@@H]2C(=O)N[C@@H](CC(=O)O)C(=O)N[C@@H](C(C)C)C(=O)N(C)[C@@H](Cc2ccccc2)C(=O)N[C@@H](Cc2ccc(O)cc2)C(=O)N2CCOC[C@@H]2C(=O)N[C@@H](Cc2c[nH]c3ccccc23)C(=O)N[C@@H](Cc2ccc(O)cc2)C(=O)N[C@@H](CCCN)C(=O)N[C@H](C(=O)NCC(N)=O)CSCC(=O)N[C@@H](Cc2cc(F)c(F)c(F)c2)C(=O)N(C)[C@@H](Cc2ccccc2)C(=O)N1C [Example 9284] ({CH2CO}-[Phe(3,4,5-F3)][NMeF][NMeNle][X1]DV[NMeF]Y[X1]WY[Orn]CG-NH2; thioether N-13) | 1 to 9.9 nM
CCCC[C@H]1C(=O)N2CCC[C@@H]2C(=O)N[C@@H](CC(=O)O)C(=O)N[C@@H](C(C)C)C(=O)N(C)[C@@H](Cc2ccccc2)C(=O)N[C@@H](CCC(=O)O)C(=O)N2C[C@@H](O)C[C@@H]2C(=O)N[C@@H](Cc2c[nH]c3ccccc23)C(=O)N[C@@H](Cc2ccc(O)cc2)C(=O)N[C@@H](CC(C)C)C(=O)N[C@H](C(=O)NCC(N)=O)CSCC(=O)N[C@@H](Cc2cc(F)c(F)c(F)c2)C(=O)N(C)[C@@H](Cc2ccccc2)C(=O)N1C [Example 9285] ({CH2CO}-[Phe(3,4,5-F3)][NMeF][NMeNle][dP]DV[NMeF]E[dHyp]WYLCG-NH2; thioether N-13) | 1 to 9.9 nM
CCCC[C@H]1C(=O)N2CCC[C@@H]2C(=O)N[C@@H](CC(=O)O)C(=O)N[C@@H](C(C)C)C(=O)N(C)[C@@H](Cc2ccccc2)C(=O)N[C@@H](CCC(=O)O)C(=O)N2C[C@@H](O)C[C@@H]2C(=O)N[C@@H](Cc2c[nH]c3ccccc23)C(=O)N[C@@H](Cc2ccc(O)cc2)C(=O)N[C@@H](CCCN)C(=O)N[C@H](C(=O)NCC(N)=O)CSCC(=O)N[C@@H](Cc2cc(F)c(F)c(F)c2)C(=O)N(C)[C@@H](Cc2ccccc2)C(=O)N1C [Example 9286] ({CH2CO}-[Phe(3,4,5-F3)][NMeF][NMeNle][dP]DV[NMeF]E[dHyp]WY[Orn]CG-NH2; thioether N-13) | 1 to 9.9 nM
CCCC[C@H]1C(=O)N2CCC[C@@H]2C(=O)N[C@@H](CC(=O)O)C(=O)N[C@@H](C(C)C)C(=O)N(C)[C@@H](Cc2ccccc2)C(=O)N[C@@H](Cc2ccc(O)cc2)C(=O)N2C[C@@H](O)C[C@@H]2C(=O)N[C@@H](Cc2c[nH]c3ccccc23)C(=O)N[C@@H](Cc2ccc(O)cc2)C(=O)N[C@@H](CC(C)C)C(=O)N[C@H](C(=O)NCC(N)=O)CSCC(=O)N[C@@H](Cc2cc(F)c(F)c(F)c2)C(=O)N(C)[C@@H](Cc2ccccc2)C(=O)N1C [Example 9287] ({CH2CO}-[Phe(3,4,5-F3)][NMeF][NMeNle][dP]DV[NMeF]Y[dHyp]WYLCG-NH2; thioether N-13) | 1 to 9.9 nM
CCCC[C@H]1C(=O)N2CCC[C@@H]2C(=O)N[C@@H](CC(=O)O)C(=O)N[C@@H](C(C)C)C(=O)N(C)[C@@H](Cc2ccccc2)C(=O)N[C@@H](Cc2ccc(O)cc2)C(=O)N2C[C@@H](O)C[C@@H]2C(=O)N[C@@H](Cc2c[nH]c3ccccc23)C(=O)N[C@@H](Cc2ccc(O)cc2)C(=O)N[C@@H](CCCN)C(=O)N[C@H](C(=O)NCC(N)=O)CSCC(=O)N[C@@H](Cc2cc(F)c(F)c(F)c2)C(=O)N(C)[C@@H](Cc2ccccc2)C(=O)N1C [Example 9288] ({CH2CO}-[Phe(3,4,5-F3)][NMeF][NMeNle][dP]DV[NMeF]Y[dHyp]WY[Orn]CG-NH2; thioether N-13) | 1 to 9.9 nM
CCCC[C@H]1C(=O)N2C[C@H](O)C[C@@H]2C(=O)N[C@@H](CC(=O)O)C(=O)N[C@@H](C(C)C)C(=O)N(C)[C@@H](Cc2ccccc2)C(=O)N[C@@H](CC(=O)O)C(=O)N2C[C@H](O)C[C@@H]2C(=O)N[C@@H](Cc2c[nH]c3ccccc23)C(=O)N[C@@H](Cc2ccc(O)cc2)C(=O)N[C@@H](CC(C)C)C(=O)N[C@H](C(=O)NCC(N)=O)CSCC(=O)N[C@@H](Cc2ccc(F)c(F)c2)C(=O)N(C)[C@@H](Cc2ccccc2)C(=O)N1C [Example 9289] ({CH2CO}-[Phe(3,4-F2)][NMeF][NMeNle][d(cisHyp)]DV[NMeF]D[d(cisHyp)]WYLCG-NH2; thioether N-13) | 1 to 9.9 nM
CCCC[C@H]1C(=O)N2C[C@H](O)C[C@@H]2C(=O)N[C@@H](CC(=O)O)C(=O)N[C@@H](C(C)C)C(=O)N(C)[C@@H](Cc2ccccc2)C(=O)N[C@@H](CC(N)=O)C(=O)N2C[C@H](O)C[C@@H]2C(=O)N[C@@H](Cc2c[nH]c3ccccc23)C(=O)N[C@@H](Cc2ccc(O)cc2)C(=O)N[C@@H](CC(C)C)C(=O)N[C@H](C(=O)NCC(N)=O)CSCC(=O)N[C@@H](Cc2ccc(F)c(F)c2)C(=O)N(C)[C@@H](Cc2ccccc2)C(=O)N1C [Example 9292] | 1 to 9.9 nM

Now from value to compound:

IC50 | SMILES
1 to 9.9 nM | CCCC[C@H]1C(=O)N2C[C@H](O)C[C@@H]2C(=O)N[C@@H](CC(=O)O)C(=O)N[C@@H](C(C)C)C(=O)N(C)[C@@H](Cc2ccccc2)C(=O)N[C@@H](CCCCN)C(=O)N2C[C@H](O)C[C@@H]2C(=O)N[C@@H](Cc2c[nH]c3ccccc23)C(=O)N[C@@H](Cc2ccc(O)cc2)C(=O)N[C@@H](CC(C)C)C(=O)N[C@H](C(=O)NCC(N)=O)CSCC(=O)N[C@@H](Cc2ccc(F)c(F)c2)C(=O)N(C)[C@@H](Cc2ccccc2)C(=O)N1C [Example 9294] ({CH2CO}-[Phe(3,4-F2)][NMeF][NMeNle][d(cisHyp)]DV[NMeF]K[d(cisHyp)]WYLCG-NH2; thioether N-13)
1 to 9.9 nM | CCCC[C@H]1C(=O)N2C[C@H](O)C[C@@H]2C(=O)N[C@@H](CC(=O)O)C(=O)N[C@@H](C(C)C)C(=O)N(C)[C@H](Cc2ccccc2)C(=O)N[C@@H](CCCCN)C(=O)N2C[C@H](O)C[C@@H]2C(=O)N[C@@H](Cc2c[nH]c3ccccc23)C(=O)N[C@@H](Cc2ccc(O)cc2)C(=O)N[C@@H](CC(C)C)C(=O)N[C@H](C(=O)NCC(N)=O)CSCC(=O)N[C@@H](Cc2ccc(F)c(F)c2)C(=O)N(C)[C@@H](Cc2ccccc2)C(=O)N1C [Example 9295] ({CH2CO}-[Phe(3,4-F2)][NMeF][NMeNle][d(cisHyp)]DV[dNMeF]K[d(cisHyp)]WYLCG-NH2; thioether N-13)
1 to 9.9 nM | CCCC[C@H]1C(=O)N2C[C@H](O)C[C@@H]2C(=O)N[C@@H](CC(=O)O)C(=O)N[C@@H](C(C)C)C(=O)N(C)[C@@H](Cc2ccccc2)C(=O)N[C@@H](CCCN)C(=O)N2C[C@H](O)C[C@@H]2C(=O)N[C@@H](Cc2c[nH]c3ccccc23)C(=O)N[C@@H](Cc2ccc(O)cc2)C(=O)N[C@@H](CC(C)C)C(=O)N[C@H](C(=O)NCC(N)=O)CSCC(=O)N[C@@H](Cc2ccc(F)c(F)c2)C(=O)N(C)[C@@H](Cc2ccccc2)C(=O)N1C [Example 9296] ({CH2CO}-[Phe(3,4-F2)][NMeF][NMeNle][d(cisHyp)]DV[NMeF][Orn][d(cisHyp)]WYLCG-NH2; thioether N-13)
1 to 9.9 nM | CCCC[C@H]1C(=O)N2C[C@H](O)C[C@@H]2C(=O)N[C@@H](CC(=O)O)C(=O)N[C@@H](C(C)C)C(=O)N(C)[C@H](Cc2ccccc2)C(=O)N[C@@H](CCCN)C(=O)N2C[C@H](O)C[C@@H]2C(=O)N[C@@H](Cc2c[nH]c3ccccc23)C(=O)N[C@@H](Cc2ccc(O)cc2)C(=O)N[C@@H](CC(C)C)C(=O)N[C@H](C(=O)NCC(N)=O)CSCC(=O)N[C@@H](Cc2ccc(F)c(F)c2)C(=O)N(C)[C@@H](Cc2ccccc2)C(=O)N1C [Example 9297] ({CH2CO}-[Phe(3,4-F2)][NMeF][NMeNle][d(cisHyp)]DV[dNMeF][Orn][d(cisHyp)]WYLCG-NH2; thioether N-13)

Reference: patent US10538555B2, “Macrocyclic inhibitors of the PD-1/PD-L1 and CD80(B7-1)/PD-L1 protein/protein interactions” (BRISTOL-MYERS SQUIBB COMPANY, priority 2014, dated 2020)
